Legend:
[1] = molecular target: T1, Muscle, skeletal receptor tyrosine-protein kinase (Homo sapiens) (UniProt O15146); experiment: Selectivity interaction (KinomeScan (DiscoverX)) EUB0001049a MUSK; conditions: at 1 µM
T1 sequence (whole entry): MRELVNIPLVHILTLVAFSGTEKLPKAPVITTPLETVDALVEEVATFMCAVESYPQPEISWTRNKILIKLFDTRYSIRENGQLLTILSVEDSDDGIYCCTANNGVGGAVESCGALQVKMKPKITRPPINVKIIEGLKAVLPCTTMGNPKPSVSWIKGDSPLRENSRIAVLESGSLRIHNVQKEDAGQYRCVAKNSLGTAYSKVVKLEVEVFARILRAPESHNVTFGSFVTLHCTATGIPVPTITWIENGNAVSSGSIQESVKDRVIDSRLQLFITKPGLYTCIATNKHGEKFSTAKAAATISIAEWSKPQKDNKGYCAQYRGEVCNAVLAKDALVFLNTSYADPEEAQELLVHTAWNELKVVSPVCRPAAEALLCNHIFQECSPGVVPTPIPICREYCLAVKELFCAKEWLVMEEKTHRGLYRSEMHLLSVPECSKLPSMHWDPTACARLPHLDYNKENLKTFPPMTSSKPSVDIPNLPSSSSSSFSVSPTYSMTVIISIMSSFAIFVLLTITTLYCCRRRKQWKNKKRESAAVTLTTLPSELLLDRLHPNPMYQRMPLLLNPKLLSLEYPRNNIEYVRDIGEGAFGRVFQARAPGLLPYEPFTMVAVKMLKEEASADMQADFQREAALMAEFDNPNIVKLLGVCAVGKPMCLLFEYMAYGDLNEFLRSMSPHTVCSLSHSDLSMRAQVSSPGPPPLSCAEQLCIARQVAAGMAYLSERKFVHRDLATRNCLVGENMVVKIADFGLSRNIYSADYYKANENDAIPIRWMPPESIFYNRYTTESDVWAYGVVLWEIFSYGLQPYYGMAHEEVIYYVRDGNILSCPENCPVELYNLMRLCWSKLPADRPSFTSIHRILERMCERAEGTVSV

[2] = molecular target: Tyrosine-protein kinase BTK (Homo sapiens, UniProt Q06187); experiment: Selectivity interaction (ActivX KiNativ screen (kinase selectivity in THP-1 cell lysates)) EUB0000639a BTK; assay type: subcellular; conditions: lysate, at 1 µM
[3] = molecular target: T2, Cyclin-G-associated kinase (Homo sapiens) (UniProt O14976); experiment: Selectivity interaction (KinomeScan (DiscoverX)) EUB0000595a GAK; conditions: at 10 µM
T2 sequence (whole entry): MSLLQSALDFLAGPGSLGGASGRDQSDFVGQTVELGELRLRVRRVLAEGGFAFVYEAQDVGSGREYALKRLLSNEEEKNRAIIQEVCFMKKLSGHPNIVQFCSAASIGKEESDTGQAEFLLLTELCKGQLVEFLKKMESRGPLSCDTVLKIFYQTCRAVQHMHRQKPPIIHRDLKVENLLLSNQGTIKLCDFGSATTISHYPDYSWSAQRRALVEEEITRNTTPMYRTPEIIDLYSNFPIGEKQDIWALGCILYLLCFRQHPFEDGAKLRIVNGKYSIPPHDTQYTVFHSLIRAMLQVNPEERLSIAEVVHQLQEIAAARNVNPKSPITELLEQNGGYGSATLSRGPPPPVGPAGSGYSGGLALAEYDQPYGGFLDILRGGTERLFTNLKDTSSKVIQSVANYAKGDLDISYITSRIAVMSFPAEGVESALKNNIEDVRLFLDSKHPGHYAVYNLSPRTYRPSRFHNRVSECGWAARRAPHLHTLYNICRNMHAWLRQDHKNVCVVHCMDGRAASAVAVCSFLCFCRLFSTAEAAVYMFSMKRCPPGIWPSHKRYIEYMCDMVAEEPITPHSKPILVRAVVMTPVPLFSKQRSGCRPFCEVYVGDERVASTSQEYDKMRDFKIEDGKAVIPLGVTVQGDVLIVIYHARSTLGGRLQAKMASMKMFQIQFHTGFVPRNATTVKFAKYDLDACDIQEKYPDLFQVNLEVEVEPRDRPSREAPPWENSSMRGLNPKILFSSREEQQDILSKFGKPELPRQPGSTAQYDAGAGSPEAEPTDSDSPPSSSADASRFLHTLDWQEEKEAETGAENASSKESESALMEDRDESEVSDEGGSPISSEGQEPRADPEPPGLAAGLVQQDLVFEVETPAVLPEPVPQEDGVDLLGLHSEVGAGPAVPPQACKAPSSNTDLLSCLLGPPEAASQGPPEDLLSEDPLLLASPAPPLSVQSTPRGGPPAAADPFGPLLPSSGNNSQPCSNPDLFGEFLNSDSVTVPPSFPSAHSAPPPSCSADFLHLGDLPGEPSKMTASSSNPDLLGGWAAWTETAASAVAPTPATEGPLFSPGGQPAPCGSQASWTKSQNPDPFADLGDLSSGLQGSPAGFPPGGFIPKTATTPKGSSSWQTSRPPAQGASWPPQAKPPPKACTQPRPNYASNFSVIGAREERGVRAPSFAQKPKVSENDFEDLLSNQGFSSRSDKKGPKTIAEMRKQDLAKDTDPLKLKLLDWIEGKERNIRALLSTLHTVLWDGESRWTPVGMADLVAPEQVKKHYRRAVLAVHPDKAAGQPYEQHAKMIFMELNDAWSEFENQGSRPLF

[4] = molecular target: Casein kinase II subunit alpha' (Homo sapiens) (UniProt P19784); experiment: Selectivity interaction (KinomeScan (DiscoverX)) EUB0001079a CSNK2A2; conditions: at 1 µM
[5] = molecular target: Mitogen-activated protein kinase kinase kinase kinase 1 (Homo sapiens) (UniProt Q92918); experiment: Selectivity interaction (KinomeScan (DiscoverX)) EUB0000655a MAP4K1; conditions: at 10 µM
[6] = molecular target: T3, Dual specificity tyrosine-phosphorylation-regulated kinase 4 (Homo sapiens) (UniProt Q9NR20); experiment: Selectivity interaction (SelectScreen profiling (Invitrogen)) EUB0000607a DYRK4; conditions: at 2 µM
T3 sequence (whole entry): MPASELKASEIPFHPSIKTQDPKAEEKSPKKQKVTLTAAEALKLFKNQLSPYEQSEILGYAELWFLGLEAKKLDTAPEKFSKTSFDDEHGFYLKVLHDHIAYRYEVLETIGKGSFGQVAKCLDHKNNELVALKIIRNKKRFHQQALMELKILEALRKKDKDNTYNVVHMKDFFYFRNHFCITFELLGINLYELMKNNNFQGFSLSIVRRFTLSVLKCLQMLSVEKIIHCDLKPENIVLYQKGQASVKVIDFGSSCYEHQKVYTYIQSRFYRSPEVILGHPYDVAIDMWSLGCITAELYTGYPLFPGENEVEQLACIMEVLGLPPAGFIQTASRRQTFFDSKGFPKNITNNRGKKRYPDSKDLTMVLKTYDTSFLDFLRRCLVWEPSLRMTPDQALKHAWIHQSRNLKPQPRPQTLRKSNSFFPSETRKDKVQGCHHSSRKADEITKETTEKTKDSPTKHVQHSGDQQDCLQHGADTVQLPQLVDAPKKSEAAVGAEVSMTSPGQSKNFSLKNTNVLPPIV

Sequence of Tyrosine-protein kinase BTK (Q06187 whole entry): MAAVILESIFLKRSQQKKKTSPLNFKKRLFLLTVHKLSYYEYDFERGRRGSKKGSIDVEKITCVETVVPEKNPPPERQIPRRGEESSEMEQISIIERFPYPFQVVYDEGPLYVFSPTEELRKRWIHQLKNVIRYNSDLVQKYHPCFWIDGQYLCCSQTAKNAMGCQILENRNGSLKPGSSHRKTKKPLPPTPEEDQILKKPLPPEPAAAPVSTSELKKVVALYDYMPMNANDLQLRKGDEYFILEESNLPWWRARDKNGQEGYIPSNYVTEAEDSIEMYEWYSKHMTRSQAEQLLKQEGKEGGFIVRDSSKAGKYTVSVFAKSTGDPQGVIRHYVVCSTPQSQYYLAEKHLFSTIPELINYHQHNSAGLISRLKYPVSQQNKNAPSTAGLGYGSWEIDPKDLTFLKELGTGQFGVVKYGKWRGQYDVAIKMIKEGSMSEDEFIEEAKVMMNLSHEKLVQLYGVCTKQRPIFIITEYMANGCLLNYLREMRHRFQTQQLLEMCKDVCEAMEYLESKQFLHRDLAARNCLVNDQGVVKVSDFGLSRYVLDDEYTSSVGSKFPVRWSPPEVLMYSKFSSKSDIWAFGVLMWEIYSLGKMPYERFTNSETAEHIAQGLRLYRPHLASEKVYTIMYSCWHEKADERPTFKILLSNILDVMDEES
Sequence of Mitogen-activated protein kinase kinase kinase kinase 1 (Homo sapiens) (Q92918 whole entry, looked up): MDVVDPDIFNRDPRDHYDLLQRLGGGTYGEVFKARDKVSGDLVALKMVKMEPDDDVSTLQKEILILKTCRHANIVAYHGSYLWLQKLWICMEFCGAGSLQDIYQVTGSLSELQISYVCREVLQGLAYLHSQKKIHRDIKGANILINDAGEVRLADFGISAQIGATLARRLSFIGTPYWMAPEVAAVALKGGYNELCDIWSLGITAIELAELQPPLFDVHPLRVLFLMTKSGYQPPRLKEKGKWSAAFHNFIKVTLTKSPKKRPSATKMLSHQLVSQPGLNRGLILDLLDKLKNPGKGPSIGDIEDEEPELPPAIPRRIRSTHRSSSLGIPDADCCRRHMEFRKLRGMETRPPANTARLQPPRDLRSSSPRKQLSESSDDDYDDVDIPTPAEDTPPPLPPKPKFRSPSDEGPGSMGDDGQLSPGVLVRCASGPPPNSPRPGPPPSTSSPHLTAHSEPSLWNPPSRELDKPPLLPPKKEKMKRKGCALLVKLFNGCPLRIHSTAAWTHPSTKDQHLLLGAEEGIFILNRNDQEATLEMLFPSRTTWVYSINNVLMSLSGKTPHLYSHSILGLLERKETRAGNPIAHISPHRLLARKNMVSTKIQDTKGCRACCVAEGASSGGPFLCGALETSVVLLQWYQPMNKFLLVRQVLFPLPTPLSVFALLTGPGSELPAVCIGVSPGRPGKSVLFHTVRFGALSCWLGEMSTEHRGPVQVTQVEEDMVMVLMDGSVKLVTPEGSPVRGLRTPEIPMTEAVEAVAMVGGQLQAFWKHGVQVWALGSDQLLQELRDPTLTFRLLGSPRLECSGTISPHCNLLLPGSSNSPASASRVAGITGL
Sequence of Casein kinase II subunit alpha' (Homo sapiens) (P19784 whole entry, looked up): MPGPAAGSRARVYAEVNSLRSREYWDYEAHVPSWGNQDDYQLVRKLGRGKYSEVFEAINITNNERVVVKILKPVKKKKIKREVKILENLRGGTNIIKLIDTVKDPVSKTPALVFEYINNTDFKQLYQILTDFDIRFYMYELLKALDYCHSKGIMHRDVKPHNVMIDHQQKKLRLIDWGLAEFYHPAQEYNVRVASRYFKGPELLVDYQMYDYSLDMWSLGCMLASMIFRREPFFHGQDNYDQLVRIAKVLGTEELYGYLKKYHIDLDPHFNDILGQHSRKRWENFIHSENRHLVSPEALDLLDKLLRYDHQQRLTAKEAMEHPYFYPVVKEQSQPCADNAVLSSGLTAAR

In the case of `COc1cc(Nc2nc(C)cc(-c3cnn4nc(OC)ccc34)n2)cc(C(F)(F)F)c1`, the % of control [1] is reported as 100%.
Compound `CC[C@@H]1[C@H](F)C(=O)N[C@@H]1COc1nccc2cc(C(N)=O)c(OC)cc12` [ZIMLOVISERTIB] has a % of inhibition [2] of -7.2%.
`COCC(=O)NC/C=C/c1ccc2ncnc(Nc3ccc(Oc4ccc(C)nc4)c(C)c3)c2c1` [CP-724714] showed a % of control [3] of 84%.
For `Nc1cnc(N2CCc3cc(S(=O)(=O)Nc4c(F)cc(Cl)cc4F)cc(N4CCCC4=O)c32)nc1` [TP-020n], the % of control [4] was 98%.
`CN(C)CCOc1ccc(-c2nc(-c3ccncc3)c(-c3ccc4c(c3)CC/C4=N\O)[nH]2)cc1` was tested, and the % of control [5] was 97%.
In the case of `CNC(=O)Nc1ccc(-c2nc(N3CC4CCC(C3)O4)c3cnn(C4CCC5(CC4)OCCO5)c3n2)cc1`, the % of inhibition [6] is reported as 4%.

Source: ChEMBL document CHEMBL5465560, “Selectivity Literature for EUbOPEN Chemogenomic Library” (2024)
